Laboratory results reported in patent publication US9226916B2, “Pyrrolidine derivatives” (HOFFMANN-LA ROCHE INC., priority 2009, dated 2016).
Where two headings read alike, the source gives them in different places.

Biological target: T1, recombinant human NK3 receptor (Homo sapiens, UniProt P29371)
T1 construct: expressed in transfected cells; host or cells: HEK293 cells, transient expression; membranes
T1 sequence (P29371 1-465): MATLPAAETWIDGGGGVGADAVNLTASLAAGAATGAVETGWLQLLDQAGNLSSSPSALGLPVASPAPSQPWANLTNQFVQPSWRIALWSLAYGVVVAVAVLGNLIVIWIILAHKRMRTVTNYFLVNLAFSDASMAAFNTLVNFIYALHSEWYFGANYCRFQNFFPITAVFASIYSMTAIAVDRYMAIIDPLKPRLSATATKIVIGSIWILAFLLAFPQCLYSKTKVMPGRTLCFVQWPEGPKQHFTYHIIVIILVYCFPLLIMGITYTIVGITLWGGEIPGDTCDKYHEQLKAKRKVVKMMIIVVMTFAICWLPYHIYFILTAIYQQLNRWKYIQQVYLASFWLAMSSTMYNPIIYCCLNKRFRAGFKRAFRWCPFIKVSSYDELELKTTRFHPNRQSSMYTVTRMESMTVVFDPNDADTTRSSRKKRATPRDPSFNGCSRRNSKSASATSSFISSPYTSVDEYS
Assay: [3H]SR142801 competition binding assay

Ki (hNK-3 receptor affinity, membranes from HEK293 cells transiently expressing recombinant human NK3 receptor, [3H]SR142801, Cheng-Prussoff, read-out: Data Ki) | Structure (SMILES) | Ki
 | CN(C(=O)Oc1ccc(F)cc1)[C@H]1CN(C(=O)C2CCN(c3ccc(Cl)nn3)CC2)C[C@@H]1c1ccc(Cl)c(Cl)c1 (racemic) [Example 79, rac-[(3R,4S)-1-[1-(6-Chloro-pyridazin-3-yl)-piperidine-4-carbonyl]-4-(3,4-dichloro-phenyl)-pyrrolidin-3-yl]-methyl-carbamic acid 4-fluoro-phenyl ester] | 0.4 nM
 | CN(C(=O)Oc1ccc(F)cc1)[C@H]1CN(C(=O)C2CCN(c3ccc(C#N)cn3)CC2)C[C@@H]1c1ccc(Cl)c(Cl)c1 (racemic) [Example 80, rac-[(3R,4S)-1-(5′-Cyano-3,4,5,6-tetrahydro-2H-[1,2′]bipyridinyl-4-carbonyl)-4-(3,4-dichloro-phenyl)-pyrrolidin-3-yl]-methyl-carbamic acid 4-fluoro-phenyl ester] | 0.3 nM
 | CN(C(=O)OCCC(F)(F)C(F)(F)F)[C@H]1CN(C(=O)C2CCN(C(=O)C3(C)CC3)CC2)C[C@@H]1c1ccc(Cl)c(Cl)c1 (racemic) [Example 83, rac-{(3R,4S)-4-(3,4-Dichloro-phenyl)-1-[1-(1-methyl-cyclopropanecarbonyl)-piperidine-4-carbonyl]-pyrrolidin-3-yl}-methyl-carbamic acid 3,3,4,4,4-pentafluoro-butyl ester] | 4.2 nM
 | CN(C(=O)OCC1CCOC1)[C@H]1CN(C(=O)C2CCN(C(=O)C3(C)CC3)CC2)C[C@@H]1c1ccc(Cl)c(Cl)c1 (mixture of isomers) [Example 85, rac-{(3R,4S)-4-(3,4-Dichloro-phenyl)-1-[1-(1-methyl-cyclopropanecarbonyl)-piperidine-4-carbonyl]-pyrrolidin-3-yl}-methyl-carbamic acid (S)-1-(tetrahydro-furan-3-yl)methyl ester and rac-{(3R,4S)-4-(3,4-Dichloro-phenyl)-1-[1-(1-methyl-cyclopropanecarbonyl)-piperidine-4-carbonyl]-pyrrolidin-3-yl}-methyl-carbamic acid (R)-1-(tetrahydro-furan-3-yl)methyl ester] | 9.2 nM
 | CN(C(=O)OCCCC(F)(F)C(F)(F)F)[C@H]1CN(C(=O)C2CCN(C(=O)C3(C)CC3)CC2)C[C@@H]1c1ccc(Cl)c(Cl)c1 (racemic) [Example 88, rac-{(3R,4S)-4-(3,4-Dichloro-phenyl)-1-[1-(1-methyl-cyclopropanecarbonyl)-piperidine-4-carbonyl]-pyrrolidin-3-yl}-methyl-carbamic acid 4,4,5,5,5-pentafluoro-pentyl ester] | 8.3 nM
4.4 nM | CN(C(=O)OCC1(C)CC1)[C@H]1CN(C(=O)C2CCN(C(=O)C3(C)CC3)CC2)C[C@@H]1c1ccc(Cl)c(Cl)c1 (racemic) [Example 91, rac-{(3R,4S)-4-(3,4-Dichloro-phenyl)-1-[1-(1-methyl-cyclopropanecarbonyl)-piperidine-4-carbonyl]-pyrrolidin-3-yl}-methyl-carbamic acid 1-methyl-cyclopropylmethyl ester] | 
 | CC1CC1COC(=O)N(C)[C@H]1CN(C(=O)C2CCN(C(=O)C3(C)CC3)CC2)C[C@@H]1c1ccc(Cl)c(Cl)c1 (mixture of isomers) [Example 92, rac-{(3R,4S)-4-(3,4-Dichloro-phenyl)-1-[1-(1-methyl-cyclopropanecarbonyl)-piperidine-4-carbonyl]-pyrrolidin-3-yl}-methyl-carbamic acid 2-methyl-cyclopropylmethyl ester] | 2.3 nM
 | CN(C(=O)OCc1ccc(F)cc1)[C@H]1CN(C(=O)C2CCN(C(=O)C3(C)CC3)CC2)C[C@@H]1c1ccc(Cl)c(Cl)c1 (racemic) [Example 95, rac-{(3R,4S)-4-(3,4-Dichloro-phenyl)-1-[1-(1-methyl-cyclopropanecarbonyl)-piperidine-4-carbonyl]-pyrrolidin-3-yl}-methyl-carbamic acid 4-fluoro-benzyl ester] | 5.8 nM
